Key:
Type in all cases: physicochemical
[1] = Absorption spectrum of toluene solution (maximum absorption, gram absorption coefficient)
Protocol: A toluene solution of the compound obtained in this way had maximum absorption at 734.0 nm, and the gram absorption coefficient thereof was 1.21×10^5 mL/g·cm. The absorption spectrum chart thereof is illustrated in FIG. 1.

[2] = Solubility in organic solvent (cyclopentanone); settings: about 10 wt % dispersion, room temperature, 0.2 μm filter; no residue = 10 wt % or more
Protocol: The solubility of the phthalocyanine compound with respect to cyclopentanone was measured by the following method.
Cyclopentanone was added to about 1 g of the phthalocyanine compound such that the total weight thereof became about 10 g, and the obtained solution was irradiated with ultrasonic waves for about 30 minutes and then stirred for 2 hours at room temperature, thereby preparing a dispersion liquid of about 10 wt %.
The dispersion liquid was filtered through a membrane filter (0.2 μm), the substance obtained by filtration was dried for 1 hour in a drier at 60° C., and then the weight of the substance obtained by filtration was measured.
The solubility of the phthalocyanine compound in a solvent is expressed by the following equation. Solubility (wt %)=(W0−W1)/W0
W0 represents the correct weight of the phthalocyanine not yet being treated, and W1 represents the weight of the substance obtained by filtration (dissolved phthalocyanine compound residue) having been dried.

[3] = Visible light transmittance of chloroform solution; settings: spectrum converted to transmittance 10% at near-infrared maximum absorption wavelength
Protocol: The visible light transmittance of the phthalocyanine-based compound of the present invention and the comparative example compounds was measured by the following measurement method.
Each of the phthalocyanine compounds ([…]) and approximately 90 mL of chloroform were put into a 100 mL volumetric flask, and the solution in the flask was irradiated with ultrasonic waves for 30 minutes and left to stand for 2 hours at room temperature. Then, chloroform was added thereto such that the meniscus of the solution matched up with the calibration mark on the volumetric flask, thereby preparing a 10 mg/L phthalocyanine solution. The prepared solution was put into a 1 cm×1 cm cell made of PYREX (registered trademark), and the absorption spectrum thereof was measured using a spectrophotometer (produced by Hitachi, Ltd.: Spectrophotometer U-3500).
The absorption spectrum measured as above was converted such that the absorbance became 1.0, that is, the transmittance became 10% at the maximum absorption wavelength in a near-infrared range, thereby obtaining a transmission spectrum. […] At 460 nm, the transmittance of the compound of the present invention was approximately the same as the transmittance of Comparative Examples 1 and 2.

COCCCCCCCCc1ccc(CCCCCCCCOC)c2c1-c1nc-2nc2[n-]c(nc3nc(nc4[n-]c(n1)c1c(CCCCCCCCOC)ccc(CCCCCCCCOC)c41)-c1c(CCCCCCCCOC)ccc(CCCCCCCCOC)c1-3)c1c(CCCCCCCCOC)ccc(CCCCCCCCOC)c21.[O]=[V+2] [Comparative Example Compound (b), reference compound]
maximum absorption [1]: 737.5 nm
gram absorption coefficient ([1]; at maximum absorption): 105000 mL/g/cm
Solubility to cyclopentanone (wt %) [2]: ≤1% wt %
Transmittance (%) 460 nm [3]: 97.8%
Transmittance (%) 610 nm [3]: 87.9%
